Data: US20110053897A1 (IRM LLC, priority 2009, published 2011)
Like-named read-outs stand apart in the source and are kept apart here.

Molecular target: T1, Syk kinase (Homo sapiens, UniProt P43405)
T1 construct: purchased
Assay: Syk kinase inhibition, Caliper LabChip off-chip mobility-shift kinase assay
Assay type: biochemical
Details: read-out: Syk Enzyme IC50
How it was run: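 Purified Syk pre-incubated 15 min with compound in 100 mM HEPES pH 7.5, 1 mM DTT, 10 mM MgCl2 or MnCl2, 0.002% Brij-35, then 1.5 μM fluorescein peptide and ATP at apparent KM added; 1–1.5 h at room temperature, 4% DMSO, EDTA stop. Microfluidic mobility-shift product/substrate conversion gave % inhibition; IC50 from 12-point series (10–0.00003 μM) by 4-parameter fit.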

| SMILES | IC50 (Caliper LabChip assay) | IC50 |
| --- | --- | --- |
| Cn1cc(-c2ccnc(Nc3cc4ccn(CCO)c(=O)c4c(NC(C)(C)C)n3)c2)cn1 [compound 830] | 103 nM | – |
| Cc1cc(Nc2nc(Nc3cc(CO)ccn3)cc3cc[nH]c(=O)c23)ccc1C1CCN(C2CC2)CC1 [compound 260] | – | 49 nM |
| Cc1ccnc(Nc2cc3cc[nH]c(=O)c3c(NCCC3CCCN3C)n2)c1 (centres unmarked) [compound 562] | – | 288 nM |
| COc1cncc(-c2cc3cc[nH]c(=O)c3c(Nc3ccc(C4CCN(CCS(C)(=O)=O)CC4)c(C)c3)n2)n1 [compound 132] | – | 115 nM |
| COCCCNc1nc(Nc2ccccn2)cc2cc[nH]c(=O)c12 [compound 190] | – | 286 nM |
| [2H]C([2H])([2H])n1ccc2cc(Nc3cc(Cl)ccn3)nc(N[C@@H](C)CO)c2c1=O [compound 1051] | 60.4 nM | – |
| CC(C)(CO)Nc1nc(Nc2cnccn2)cc2ccn(CCO)c(=O)c12 [compound 473] | – | 114 nM |
| CCn1ccc2cc(Nc3cc(C)ccn3)nc(N[C@H]3CCCC[C@@H]3O)c2c1=O (racemic) [compound 406] | – | 476 nM |
| CC1(Nc2nc(-c3cnc(N)nc3)cc3ccn(CCO)c(=O)c23)CC1 [compound 1036] | 20 nM | – |
| CC(C)(C)Nc1nc(-c2cnc(N)nc2)cc2ccn(C[C@H](O)CO)c(=O)c12 [compound 935] | 8 nM | – |
| COc1cncc(-c2cc3cc[nH]c(=O)c3c(Nc3ccc(C4CCN(CCCC#N)CC4)c(C)c3)n2)n1 [compound 172] | – | 19 nM |
| COc1cncc(-c2cc3cc[nH]c(=O)c3c(Nc3ccc(C4CCN(CCC(=O)N5CCOCC5)CC4)c(C)c3)n2)n1 [compound 162] | – | 32 nM |
| CC1(Nc2nc(Nc3cnccn3)cc3ccn(CCO)c(=O)c23)CCC1 [compound 458] | – | 11.4 nM |
| CCC(=O)N1CCC(c2ccc(Nc3nc(-c4cncc(OC)n4)cc4cc[nH]c(=O)c34)cc2C)CC1 [compound 80] | – | 63 nM |
| O=c1[nH]ccc2cc(Nc3ccccn3)nc(NC3CCOCC3)c12 [compound 297] | – | 335 nM |
| COc1cncc(-c2cc3cc[nH]c(=O)c3c(Nc3ccc(C4CCN(C(=O)N5CCNC5=O)CC4)c(C)c3)n2)n1 [compound 114] | – | 174 nM |
| CC(C)(C)Nc1nc(-c2cnc(N)nc2)cc2ccn(CC(O)CO)c(=O)c12 (centres unmarked) [compound 929] | 8 nM | – |
| COc1cncc(-c2cc3cc[nH]c(=O)c3c(Nc3ccc(C4=CCSCC4)c(C)c3)n2)n1 [compound 12] | – | 3430 nM |
| Nc1ncc(-c2cc3cc[nH]c(=O)c3c(NC[C@@H](O)c3cccc(Cl)c3)n2)cn1 [compound 449] | – | 384 nM |
| COc1cncc(-c2cc3cc[nH]c(=O)c3c(Nc3ccc(C4CCN(C(=O)[C@@H](C)OC)CC4)c(C)c3)n2)n1 [compound 57] | – | 47 nM |
| CCn1ccc2cc(Nc3cc(C(C)(C)O)ccn3)nc(NC(C)(C)CO)c2c1=O [compound 701] | 69 nM | – |
| COCCN1CCC(c2ccc(Nc3nc(-c4cnc(C)nc4)cc4cc[nH]c(=O)c34)cc2C)CC1 [compound 71] | – | 14 nM |
| COc1cncc(-c2cc3cc[nH]c(=O)c3c(Nc3ccc(C4CCN(CCC(C)(C)C)CC4)c(C)c3)n2)n1 [compound 61] | – | 158 nM |
| [2H]C([2H])([2H])n1ccc2cc(Nc3cnccn3)nc(NC[C@@H]3CCCO3)c2c1=O [compound 1048] | 164 nM | – |
| CCn1ccc2cc(Nc3cnccn3)nc(N[C@@H]3CCC[C@@H]3CO)c2c1=O [compound 942] | 87 nM | – |
| Cn1ccc2cc(Nc3cnccn3)nc(Nc3ccc(S(C)(=O)=O)cc3)c2c1=O [compound 336] | – | 584 nM |

| SMILES | IC50 (Caliper LabChip assay) | IC50 |
| --- | --- | --- |
| COC[C@H](C)Nc1nc(-c2cnc(N)nc2)cc2cc[nH]c(=O)c12 [compound 448] | – | 125 nM |
| CC(C)(C)Nc1nc(Nc2cc(OCC3CCCO3)ncn2)cc2ccn(CC(O)CO)c(=O)c12 (centres unmarked) [compound 891] | 60 nM | – |
| CC(C)CNc1nc(Nc2ccccn2)cc2cc[nH]c(=O)c12 [compound 288] | – | 694 nM |
| O=c1[nH]ccc2cc(C3CCSCC3)nc(Nc3ccc(N4CCOCC4)cc3)c12 [compound 15] | – | 702 nM |
| COCc1ccnc(Nc2cc3ccn(CCO)c(=O)c3c(NC(C)(C)C)n2)c1 [compound 709] | 11 nM | – |
| Cn1ccc2cc(Nc3cnccn3)nc(N)c2c1=O [compound 479] | – | 599 nM |
| Cc1ccnc(Nc2cc3cc[nH]c(=O)c3c(NCCCO)n2)c1 [compound 504] | – | 48 nM |
| CC1(Cn2ccc3cc(-c4cnc(N)nc4)nc(NC4CCOCC4)c3c2=O)COC1 [compound 769] | 66 nM | – |
| CC(C)(C)Nc1nc(Nc2cc(C(C)(C)C(=O)O)ccn2)cc2ccn(CCO)c(=O)c12 [compound 861] | 169 nM | – |
| COc1cncc(-c2cc3cc[nH]c(=O)c3c(Nc3ccc(C4CCN(CC(O)CO)CC4)c(C)c3)n2)n1 (centres unmarked) [compound 166] | – | 3 nM |
| CC(C)(C)Nc1nc(Nc2cc(C(=O)NCCc3c[nH]cn3)ccn2)cc2ccn(CCO)c(=O)c12 [compound 687] | 248 nM | – |
| Cn1ccc2cc(Nc3ccccn3)nc(N)c2c1=O [compound 572] | – | 3270 nM |
| CCn1ccc2cc(Nc3cc(C)ccn3)nc(N[C@H](C)CO)c2c1=O [compound 962] | 92 nM | – |
| CC(C)(C)Nc1nc(Nc2cnccn2)cc2ccn(Cc3ccccn3)c(=O)c12 [compound 1021] | 219 nM | – |
| COC/C=C/c1cc(Nc2cc3ccn(CCO)c(=O)c3c(NC(C)(C)C)n2)ncn1 [compound 621] | 94 nM | – |
| CCn1ccc2cc(Nc3cc(C)ccn3)nc(NC(C)(C)CCO)c2c1=O [compound 782] | 217 nM | – |
| Cc1ccnc(Nc2cc3cc[nH]c(=O)c3c(NC(C)C(C)C)n2)c1 (centres unmarked) [compound 268] | – | 343 nM |
| CCn1ccc2cc(Nc3nccc(O)n3)nc(N)c2c1=O [compound 803] | 307 nM | – |
| CCn1ccc2cc(Nc3cnccn3)nc(NC3(CO)CCC3)c2c1=O [compound 897] | 5 nM | – |
| CCn1ccc2cc(Nc3cc(C)ccn3)nc(N[C@H]3CCCC[C@H]3O)c2c1=O (racemic) [compound 408] | – | 324 nM |
| COc1cncc(-c2cc3cc[nH]c(=O)c3c(Nc3ccc(CCN4CCN(C(C)=O)CC4)cc3)n2)n1 [compound 45] | – | 61 nM |
| COCC(COC)n1ccc2cc(Nc3cnccn3)nc(NC(C)(C)C)c2c1=O [compound 937] | 12 nM | – |
| [2H]C([2H])([2H])n1ccc2cc(Nc3cc(C)c(F)cn3)nc(NC(C)(C)CO)c2c1=O [compound 1049] | 89.9 nM | – |
| CC1(Nc2nc(Nc3cnccn3)cc3ccn(CCO)c(=O)c23)CC1 [compound 838] | 17 nM | – |
| Cc1ccnc(Nc2cc3ccn(C)c(=O)c3c(NC(C)(C)CO)n2)c1 [compound 486] | – | 45 nM |
| [2H]C([2H])([2H])n1ccc2cc(Nc3cc(Cl)ccn3)nc(NC3CC3)c2c1=O [compound 519] | – | 302 nM |

| SMILES | IC50 (Caliper LabChip assay) | IC50 |
| --- | --- | --- |
| CCn1ccc2cc(Nc3cnccn3)nc(N[C@H]3CCC[C@H]3O)c2c1=O [compound 421] | – | 23.6 nM |
| Cc1nc(-c2cc3cc[nH]c(=O)c3c(Nc3ccc(N4C[C@@H](C)O[C@@H](C)C4)nc3)n2)cnc1N [compound 19] | – | 222 nM |
| CCn1ccc2cc(Nc3cnccn3)nc(N[C@@H]3CC[C@H](O)C3)c2c1=O [compound 427] | – | 48.6 nM |
| Cc1ccnc(Nc2cc3ccn(C)c(=O)c3c(NCCCO)n2)c1 [compound 503] | – | 84 nM |
| CCn1ccc2cc(Nc3cc(Cl)ccn3)nc(N[C@H]3CC[C@@H](O)CC3)c2c1=O [compound 383] | – | 26 nM |
| COc1cncc(-c2cc3cc[nH]c(=O)c3c(Nc3ccc(C4CCC(N(C)C)CC4)cc3)n2)n1 (centres unmarked) [compound 109] | – | 31 nM |
| C[C@@H](CO)Nc1nc(Nc2ccccn2)cc2cc[nH]c(=O)c12 [compound 298] | – | 155 nM |
| COc1cncc(-c2cc3cc[nH]c(=O)c3c(Nc3ccc4c(c3)C3CC4CN(C(=O)C(F)(F)F)C3)n2)n1 (centres unmarked) [compound 95] | – | 2370 nM |
| Cc1ccc(Nc2cc3cc[nH]c(=O)c3c(Nc3ccc(N4CCOCC4)cc3)n2)nc1 [compound 545] | – | 3850 nM |
| Cc1cc(Nc2nc(-c3ccnc(N)n3)cc3cc[nH]c(=O)c23)ccc1C1CCN(CCC#N)CC1 [compound 67] | – | 328 nM |
| COc1ccc(Nc2nc(Nc3cc(C)ccn3)cc3ccn(C)c(=O)c23)cc1 [compound 364] | – | 228 nM |
| Cn1ccc2cc(Nc3cnccn3)nc(NCC(F)(F)F)c2c1=O [compound 464] | – | 81 nM |
| Cc1ccnc(Nc2cc3ccn(C)c(=O)c3c(Nc3ccc(C(=O)N4CCOCC4)cc3)n2)c1 [compound 500] | – | 69 nM |
| CCCNC(=O)c1ccc(Nc2nc(Nc3cc(C)ccn3)cc3ccn(C)c(=O)c23)cc1 [compound 363] | – | 551 nM |
| O=c1c2c(NCC(F)(F)F)nc(Nc3cc(Cl)ccn3)cc2ccn1CCO [compound 593] | – | 271 nM |
| COC(=O)C(C)N1CCC(c2ccc(Nc3nc(-c4cncc(OC)n4)cc4cc[nH]c(=O)c34)cc2C)CC1 (centres unmarked) [compound 116] | – | 184 nM |
| CC(C)(C)Nc1nc(-c2cnc(N)nc2)cc2ccn(CC3CCCO3)c(=O)c12 (centres unmarked) [compound 918] | 35 nM | – |
| CCn1ccc2cc(-c3cnc(N)nc3)nc(N[C@H]3CC[C@@H](O)C3)c2c1=O [compound 1039] | 12 nM | – |
| CC(C)n1ccc2cc(Nc3cnccn3)nc(N[C@H]3CC[C@H](O)CC3)c2c1=O [compound 965] | 61 nM | – |
| CC(C)(C)Nc1nc(Nc2nccc(O)n2)cc2ccn(CCO)c(=O)c12 [compound 826] | 25 nM | – |
| CC(C)n1ccc2cc(Nc3cnccn3)nc(N[C@H]3CC[C@@H](O)C3)c2c1=O [compound 978] | 16 nM | – |
| O=c1[nH]ccc2cc(-c3cnccn3)nc(Nc3ccc4c(c3)C3CNCC4C3)c12 (centres unmarked) [compound 98] | – | 1520 nM |
| Cc1ccc(-c2cc3cc[nH]c(=O)c3c(Nc3cnn(CCN4CCOCC4)c3)n2)cn1 [compound 126] | – | 100 nM |
| COc1cncc(-c2cc3cc[nH]c(=O)c3c(Nc3ccc(C4=CCNCC4)c(C)c3)n2)n1 [compound 13] | – | 38 nM |
| CC(C)(C)Nc1nc(Nc2cc(C(C)(C)O)ncn2)cc2ccn(CC(O)CO)c(=O)c12 (centres unmarked) [compound 730] | 42 nM | – |
